Test results published in PubChem BioAssay (NCI).
“And” between values parts separate entries of the source, which are not always exact repeats. Equal entries are not always repeated.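 1) Cells in 96-well plates. 2) Compound, 48 h, 5 concentrations. 3) Linear interpolation between surrounding doses. 4) Unreached endpoint = highest concentration. GI50 is the concentration that inhibits growth by half. TGI denotes the concentration required for complete inhibition of growth.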

Columns and labels:
Test in all cases: DTP human tumour cell line panel, 48 h
IGROV1 ovarian = test system: IGROV1 ovarian
HOP-92 NSCLC = test system: HOP-92 NSCLC
CAKI-1 renal = test system: CAKI-1 renal
KM20L2 colon = test system: KM20L2 colon
M19-MEL melanoma = test system: M19-MEL melanoma
SW-620 colon = test system: SW-620 colon
SF-268 CNS = test system: SF-268 CNS
SNB-19 CNS = test system: SNB-19 CNS
SR leukemia = test system: SR leukemia
MDA-MB-231 breast = test system: MDA-MB-231 breast

Row | SMILES | TGI (IGROV1 ovarian) | TGI (HOP-92 NSCLC) | TGI (CAKI-1 renal) | TGI (KM20L2 colon) | TGI (M19-MEL melanoma) | TGI (SW-620 colon) | TGI (SF-268 CNS) | TGI (SNB-19 CNS) | GI50 (IGROV1 ovarian) | GI50 (HOP-92 NSCLC) | GI50 (CAKI-1 renal) | GI50 (SW-620 colon) | GI50 (SF-268 CNS) | GI50 (SNB-19 CNS) | GI50 (SR leukemia) | TGI (SR leukemia) | GI50 (MDA-MB-231 breast) | TGI (MDA-MB-231 breast)
1 | OCc1cc2c(cn1)[nH]c1ccc(NCc3ccccc3)cc12 | > 100000 nM | 57300 nM | > 100000 nM | 55600 nM | 60300 nM | 78700 nM | 70900 nM | > 100000 nM |  |  |  |  |  |  |  |  |  | 
2 | CC1=N/C(=C\c2ccc(/C=C3/N=C(C)OC3=O)cc2)C(=O)O1 | > 100000 nM | > 100000 nM | > 100000 nM | > 100000 nM | > 100000 nM | > 100000 nM | > 100000 nM | > 100000 nM |  |  |  |  |  |  |  |  |  | 
3 | CC(=O)ON1CCCC(P(=O)(OCOC(=O)C(C)(C)C)OCOC(=O)C(C)(C)C)C1=O (stereo not drawn) | 1840 nM | 1820 nM | 20400 nM |  |  | 20800 nM | 6250 nM | 4740 nM | 374 nM | 187 nM | 712 nM | 1260 nM | 746 nM | 583 nM | 309 nM | 2340 nM | 446 nM | 5040 nM
4 | COc1cc(Nc2cnc3ccc(C(F)(F)F)cc3n2)cc(OC)c1OC |  | > 100000 nM |  | 22500 nM | > 100000 nM | > 100000 nM | > 100000 nM | > 100000 nM |  |  |  |  |  |  |  | > 100000 nM |  | 
5 | COC(=O)CCC(NC(=S)N/N=C/c1cccs1)C(=O)OC (stereo not drawn) | > 100000 nM | > 100000 nM |  | > 100000 nM | > 100000 nM | > 100000 nM | > 100000 nM | > 100000 nM |  |  |  |  |  |  |  | > 100000 nM |  | 
6 | Nc1nc2c(c3cnccc13)C(c1ccc(Cl)c(Cl)c1)Cc1cnccc1-2 (stereo not drawn) | 17800 nM | 14500 nM | 13400 nM |  |  | 11500 nM | 18300 nM | 13500 nM | 1850 nM | 1880 nM | 658 nM | 449 nM | 1180 nM | 650 nM | 384 nM | > 100000 nM | 937 nM | 14800 nM
7 | O=C1NC(=O)c2c1n(Cc1ccccc1)c(=O)n2Cc1ccccc1 | > 100000 nM | > 100000 nM | > 100000 nM | > 100000 nM | > 100000 nM | > 100000 nM | > 100000 nM | > 100000 nM |  |  |  |  |  |  |  |  |  | 
8 | O=C1/C(=C/c2ccc(Cl)c(Cl)c2)CN(C(=O)CCN2CCC(=NO)CC2)C/C1=C\c1ccc(Cl)c(Cl)c1 | 1410 nM | 3820 nM | 1780 nM |  |  | 708 nM | 2880 nM | 1800 nM | 534 nM | 1560 nM | 584 nM | 247 nM | 1060 nM | 599 nM | 353 nM | > 100000 nM | 616 nM | 1850 nM
9 | Cc1nn(-c2ccc(Cl)cc2)c2ncnc(N/N=C/c3ccccc3O)c12 | 10500 nM and 8480 nM | 34600 nM and 16300 nM | 3030 nM and 8820 nM |  |  | > 100000 nM | 15900 nM and > 37300 nM | > 80400 nM | 534 nM and 485 nM | 1110 nM and 714 nM | 331 nM and 625 nM | 1350 nM and 505 nM | 401 nM and 312 nM | 1080 nM and 604 nM | 445 nM and 206 nM | 43500 nM | 694 nM and 375 nM | > 65300 nM
